# Measured values from PubChem BioAssay AID2060497 (Molecular Pharmacology Branch, DTP, NCI, 2025).
# Tested on: 317291-083-R-J1-PDC complex spheroids, viability
# Assay: Anticancer human tumor 317291-083-R-J1-PDC patient-derived soft tissue sarcoma cell line growth inhibition [GQUAD]
# Conditions: for IC50: curve of first compound; for viability, T/C: stronger effect = lower value
# Description: DNA G-quadruplex Stabilizer Agents in Combinations in Complex Spheroids
# A high-throughput screen of multi-cell type tumor spheroids was designed to identify active combinations of DNA G-quadruplex stabilizer agents and targeted small molecules. Complex spheroids include a stromal component modeled by human endothelial cells (HUVEC) and fibroblasts modeled by human mesenchymal stem cells (MSCs). The concentration ranges selected for each drug and investigational agent were based upon clinically achievable concentrations if the clinical Cmax of the agent was known.
# Compounds. The drugs and investigational agents: pidnarulex (CX-5461; NSC782164), APTO-253 (NSC789042), BRACO-19 (NSC847499), peposertib (NSC802822), ceralasertib (NSC780249), elimusertib (NSC800525), camonsertib (NSC841442), AZD-1390 (NSC803789), olaparib (NSC753686), talazoparib (NSC767125), ART-558 (NSC835418), sotorasib (NSC818433), MRTX-1133 (NSC836407), SN-38 (NSC673596), topotecan (NSC609699), etoposide (NSC141540), doxorubicin (NSC123127), gemcitabine (NSC613327), 5-fluorouracil (NSC19893), paclitaxel (NSC125973), vemurafenib (NSC761431), panobinostat (NSC761190), R-306465 (JNJ-16241199; NSC773264), adavosertib (NSC754352), TP-3654 (NSC805149), carboplatin (NSC241240), KSQ-4279 (NSC840948), and staurosporine (NSC755774) were obtained from the National Cancer Institute (NCI) Developmental Therapeutics Program Chemical Repository (34). The FDA-approved anticancer drug set is available from the NCI Developmental Therapeutics Program. […] The stock solutions were prepared in dimethyl sulfoxide (DMSO, Sigma-Aldrich, St. Louis, MO, cat. D2650) at 800-fold the tested concentration and stored at -70 degrees C prior to their use. All drugs and investigational agents were tested over a range starting from a high concentration at or near the clinical Cmax and decreasing in half-log increments. If the clinical Cmax for an agent had not been determined, the highest concentration tested was 10 microM.
# 2.3 Cell Culture. All cells were maintained in an incubator at 37 degrees C and 5% CO2 with 95% humidity. The PDC lines were cultured according to standard operating procedures established by the NCI PDMR. All PDCs were thawed and cultured in Matrigel-coated flasks prepared with a working solution of 1X Ham's F-12 nutrient mix, without supplementation (Invitrogen, cat. 11765054), 100 U/mL penicillin-streptomycin (Invitrogen, cat. 15140122), and 2.5% Matrigel (Corning Inc., cat. 354248) for the first three passages. The 857933-349-R-J2-PDC line was cultured in 6C/Colon 1B media, which includes advanced DMEM/F-12 (Thermo Fisher Scientific, cat. 12634028), 10 mM HEPES (Thermo Fisher Scientific, cat. 15630080), 1X GlutaMAX supplement (Thermo Fisher Scientific, cat. 35050061), 0.1 mg/mL primocin (InvivoGen, cat. ant-pm-2), 10% defined fetal bovine serum, heat inactivated (HyClone Laboratories Inc., cat. SH30070.03HI), 50% L-WRN conditioned media (ATCC, cat. CRL-3276), 1.25 mM N-Acetyl-L-cysteine (Sigma-Aldrich, cat. A9165), 10 mM nicotinamide (Sigma-Aldrich, cat. N0636), 1X B-27 supplement (Thermo Fisher Scientific, cat. 17504044), 1X N-2 supplement (Thermo Fisher Scientific, cat. 17502048), 10 microM Y-27632 dihydrochloride (Tocris Bioscience, cat. 1254), and 50 ng/mL human EGF recombinant protein (Thermo Fisher Scientific, cat. PHG0311). The 485176-168-R4-J1-PDC line was cultured in Panc media, which includes all 6C/Colon 1B media components plus 100 ng/mL human FGF-10 (Thermo Fisher Scientific, cat. 100-26), 500 nM SB-431542 (Selleckchem, cat. S1067), and gastrin (Tocris, cat. 3006).
# […]
# [1] = second compound 0.0316 µM, first compound 0.0316 µM
# [2] = second compound 0.0316 µM, first compound 0.316 µM
# [3] = second compound 0.1 µM, first compound 0.0316 µM
# [4] = second compound 0.1 µM, first compound 0.316 µM
# [5] = second compound 0.316 µM, first compound 0.0316 µM
# [6] = second compound 0.316 µM, first compound 0.316 µM
# [7] = second compound 1 µM, first compound 0.0316 µM
# [8] = second compound 1 µM, first compound 0.316 µM
# [9] = second compound 3.16 µM, first compound 0.0316 µM
# [10] = second compound 3.16 µM, first compound 0.316 µM
# [11] = second compound 10 µM, first compound 0.0316 µM
# [12] = second compound 10 µM, first compound 0.316 µM
# 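Further: spheroids exposed to compounds for one week before readout.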
# 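Wherever viability, T/C is given: percent viability relative to DMSO vehicle wells taken as 100%.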
compound,measurement,setting,value
COc1cc(C2c3cc4c(cc3C(OC3OC5COC(C)OC5C(O)C3O)C3COC(=O)C23)OCO4)cc(OC)c1O (centres undefined) + Cc1[nH]c2ccc(F)cc2c1-c1nc2c3cccnc3c3ncccc3c2[nH]1,IC50,second compound 0.0316 µM,432 nM
same,IC50,second compound 0.1 µM,276 nM
same,IC50,second compound 0.316 µM,260 nM
same,IC50,second compound 1 µM,260 nM
same,IC50,second compound 3.16 µM,192 nM
same,IC50,second compound 10 µM,222 nM
same,"viability, T/C",[1],103%
same,"viability, T/C","second compound 0.0316 µM, first compound 0.1 µM",93%
same,"viability, T/C",[2],59.5%
same,"viability, T/C","second compound 0.0316 µM, first compound 1 µM",25.2%
same,"viability, T/C","second compound 0.0316 µM, first compound 3.16 µM",17.9%
same,"viability, T/C","second compound 0.0316 µM, first compound 10 µM",16.5%
same,"viability, T/C",[3],96.2%
same,"viability, T/C","second compound 0.1 µM, first compound 0.1 µM",102%
same,"viability, T/C",[4],43.5%
same,"viability, T/C","second compound 0.1 µM, first compound 1 µM",28.3%
same,"viability, T/C","second compound 0.1 µM, first compound 3.16 µM",17.6%
same,"viability, T/C","second compound 0.1 µM, first compound 10 µM",9.83%
same,"viability, T/C",[5],113%
same,"viability, T/C","second compound 0.316 µM, first compound 0.1 µM",92.7%
same,"viability, T/C",[6],40.6%
same,"viability, T/C","second compound 0.316 µM, first compound 1 µM",22.5%
same,"viability, T/C","second compound 0.316 µM, first compound 3.16 µM",14.5%
same,"viability, T/C","second compound 0.316 µM, first compound 10 µM",18.4%
same,"viability, T/C",[7],84.7%
same,"viability, T/C","second compound 1 µM, first compound 0.1 µM",94.5%
same,"viability, T/C",[8],41.8%
same,"viability, T/C","second compound 1 µM, first compound 1 µM",20.2%
same,"viability, T/C","second compound 1 µM, first compound 3.16 µM",13.6%
same,"viability, T/C","second compound 1 µM, first compound 10 µM",13.2%
same,"viability, T/C",[9],80.8%
same,"viability, T/C","second compound 3.16 µM, first compound 0.1 µM",70%
same,"viability, T/C",[10],34.5%
same,"viability, T/C","second compound 3.16 µM, first compound 1 µM",16.7%
same,"viability, T/C","second compound 3.16 µM, first compound 3.16 µM",16.1%
same,"viability, T/C","second compound 3.16 µM, first compound 10 µM",10%
same,"viability, T/C",[11],73.1%
same,"viability, T/C","second compound 10 µM, first compound 0.1 µM",57.6%
same,"viability, T/C",[12],47.7%
same,"viability, T/C","second compound 10 µM, first compound 1 µM",17.7%
same,"viability, T/C","second compound 10 µM, first compound 3.16 µM",11.9%
same,"viability, T/C","second compound 10 µM, first compound 10 µM",16.9%
Cn1ncnc1[C@H]1c2n[nH]c(=O)c3cc(F)cc(c23)N[C@@H]1c1ccc(F)cc1 + Cc1[nH]c2ccc(F)cc2c1-c1nc2c3cccnc3c3ncccc3c2[nH]1,IC50,second compound 0.0316 µM,> 316 nM
same,IC50,second compound 0.1 µM,> 316 nM
same,IC50,second compound 0.316 µM,> 316 nM
same,IC50,second compound 1 µM,> 316 nM
same,IC50,second compound 3.16 µM,> 316 nM
same,IC50,second compound 10 µM,> 316 nM
same,"viability, T/C","second compound 0.0316 µM, first compound 0.000999 µM",104%
same,"viability, T/C","second compound 0.0316 µM, first compound 0.00316 µM",101%
same,"viability, T/C","second compound 0.0316 µM, first compound 0.00999 µM",120%
same,"viability, T/C",[1],87.8%
same,"viability, T/C","second compound 0.0316 µM, first compound 0.0999 µM",92%
same,"viability, T/C",[2],77.2%
same,"viability, T/C","second compound 0.1 µM, first compound 0.000999 µM",119%
same,"viability, T/C","second compound 0.1 µM, first compound 0.00316 µM",99.2%
same,"viability, T/C","second compound 0.1 µM, first compound 0.00999 µM",113%
same,"viability, T/C",[3],112%
same,"viability, T/C","second compound 0.1 µM, first compound 0.0999 µM",91.6%
same,"viability, T/C",[4],64.7%
same,"viability, T/C","second compound 0.316 µM, first compound 0.000999 µM",112%
same,"viability, T/C","second compound 0.316 µM, first compound 0.00316 µM",114%
same,"viability, T/C","second compound 0.316 µM, first compound 0.00999 µM",97.7%
same,"viability, T/C",[5],94.3%
same,"viability, T/C","second compound 0.316 µM, first compound 0.0999 µM",108%
same,"viability, T/C",[6],91.1%
same,"viability, T/C","second compound 1 µM, first compound 0.000999 µM",120%
same,"viability, T/C","second compound 1 µM, first compound 0.00316 µM",113%
same,"viability, T/C","second compound 1 µM, first compound 0.00999 µM",89.5%
same,"viability, T/C",[7],89.3%
same,"viability, T/C","second compound 1 µM, first compound 0.0999 µM",91.1%
same,"viability, T/C",[8],72.3%
same,"viability, T/C","second compound 3.16 µM, first compound 0.000999 µM",106%
same,"viability, T/C","second compound 3.16 µM, first compound 0.00316 µM",99.7%
same,"viability, T/C","second compound 3.16 µM, first compound 0.00999 µM",96.7%
same,"viability, T/C",[9],73.4%
same,"viability, T/C","second compound 3.16 µM, first compound 0.0999 µM",75.3%
same,"viability, T/C",[10],57.1%
same,"viability, T/C","second compound 10 µM, first compound 0.000999 µM",96.1%
same,"viability, T/C","second compound 10 µM, first compound 0.00316 µM",100%
same,"viability, T/C","second compound 10 µM, first compound 0.00999 µM",102%
same,"viability, T/C",[11],75.4%
same,"viability, T/C","second compound 10 µM, first compound 0.0999 µM",86%
same,"viability, T/C",[12],68.7%
